A value given as a limit tells only on which side of the number the result lay.

One may read the DC50 as the midpoint of the concentration-degradation curve. By Dmax is commonly meant the largest share of the target that was removed.

Test [1] addresses T1, G2019S LRRK2 (Homo sapiens, UniProt Q5S007, G2019S).
T1 construct: expressed in transfected cells; host or cells: HEK293 (ATCC CRL-1573), transient transfection, ubiquitin promoter
Kind of test: LRRK2 degradation assay, G2019S LRRK2-HiBit expressed from plasmid in HEK293 cells. It is filed as cell-based. The following applies: HEK293 cells transfected with HiBit-tagged G2019S LRRK2, 24 hours compound incubation. The method, then: (§1) The assay measures the degradation of wildtype and G2019S LRRK2 tagged with a HiBit tag on the C-terminus of the protein that was expressed from a mammalian expression vector, driven by the ubiquitin promoter in HEK293 cells. Each compound dose-response was repeated on two separate days, on three separate plates each day.
(§2) Plasmid Preparation. Transfection mixes were assembled as follows and incubated for 30 minutes at room temperature. In a 15 mL tube, 5.25 mL Opti-MEM (no additions) was mixed with 17 μL Firefly Luciferase plasmid at 1 μg/μL and 158 μL WT plasmid DNA at 1 μg/μL (175 μg total DNA) were mixed by flicking. In a new 15 mL tube, 5.25 mL OptiMEM was mixed with 17 μL Firefly Luciferase plasmid at 1 μg/μL and 158 μL G2019S plasmid DNA at 1 μg/μL (175 μg total DNA) were mixed by flicking. X-tremeGene HP was mixed thoroughly using a vortex. Next, 175 μL was added to each tube and flicked to mix. Both tubes were left to incubate for 30 minutes at room temperature.
(§3) While the transfection mixes were incubating, HEK293 cells (acquired from ATCC; ATCC CRL-1573) were harvested with trypsin. Once cells are detached, the cells were resuspended in 12 mL OptiMEM+5% FBS and transferred to a 50 mL tube. The cells were mixed well and counted. Using OptiMEM+5% FBS, the cells were diluted in two 250 mL conical tubes at 0.71×10^6 cells/mL in 70 mL. One tube was labeled “WT” and the other “G2019S”. The WT and G2019S transfection mixes were added dropwise to the corresponding 250 mL tubes. The tubes were mixed first by pipetting then by swirling. The tubes were incubated at room temperature for at least 5 minutes.
(§4) Each tube was swirled before dispensing and after every three plates. Seventy microliters of cells were dispensed with WT or G2019S DNA to seven plates each. Three plates of each were tested with compound plate one (preparation described below) and three plates of each were tested with compound plate two (preparation described below). The first plate from each set served as a “prime” plate and was not used to test compounds. Each plate was incubated in the hood for 10 minutes before placing in the 37° C. incubator for 24 hours.
(§5) Preparation of Compound and Assay Plates. Two compound plates were made using 96 well polypropylene plates. Compounds were made up at 10 mM and were diluted to 1 mM in 30 μL. Each dose response curve included a well of DMSO, as a negative control and for normalization, and a well of 0.5 μM of Exemplary Compound 4 as a positive control. In addition to seven test compounds, each plate also included a dose response of Exemplary Compound 4. The compound plates were spun down along at 1200 rpm for 2 minutes.
(§6) The two compound plates were then mixed and 2 μL was diluted in intermediate plates having 248 μL of Opti-Mem in each well. Next, 10 μL diluted compounds from the intermediate plates were added to each test plate (three WT and three G2019S plates per compound plate for a total of 12 assay plates). The plates were incubated for 24 hours at 37° C.
(§7) All assay plates and all Nano-Glo Dual-Luciferase Reporter Assay System components (except for the DLR substrate) were equilibrated to room temperature. Next, the luciferase buffer was mixed with the lyophilized amber bottle until fully dissolved, and 75 μL of the luciferase mixture was added to each well of each assay plate. The assay plates were incubated for 10 minutes at room temperature with shaking for at least 5 minutes, and then read on a plate reader.
(§8) Developing Plates and Analyzing Data. One milliliter of DLR substrate and 1 mL LgBiT Protein were added to the Stop and Glo buffer, and 75 μL of the mixture was added to each well of each plate. Optically clear seals were added to each plate and each plate was incubated for 20 minutes with shaking for at least 10 minutes, and then read on a plate reader. […]
A general note: HiBiT is a short tag that completes a luciferase, so light tracks the accessible tagged protein.

In test [2] the target is T2, wildtype LRRK2 (Homo sapiens, UniProt Q5S007).
T2 construct: expressed in transfected cells; host or cells: HEK293 (ATCC CRL-1573), transient transfection, ubiquitin promoter
T2 sequence (Q5S007 whole entry): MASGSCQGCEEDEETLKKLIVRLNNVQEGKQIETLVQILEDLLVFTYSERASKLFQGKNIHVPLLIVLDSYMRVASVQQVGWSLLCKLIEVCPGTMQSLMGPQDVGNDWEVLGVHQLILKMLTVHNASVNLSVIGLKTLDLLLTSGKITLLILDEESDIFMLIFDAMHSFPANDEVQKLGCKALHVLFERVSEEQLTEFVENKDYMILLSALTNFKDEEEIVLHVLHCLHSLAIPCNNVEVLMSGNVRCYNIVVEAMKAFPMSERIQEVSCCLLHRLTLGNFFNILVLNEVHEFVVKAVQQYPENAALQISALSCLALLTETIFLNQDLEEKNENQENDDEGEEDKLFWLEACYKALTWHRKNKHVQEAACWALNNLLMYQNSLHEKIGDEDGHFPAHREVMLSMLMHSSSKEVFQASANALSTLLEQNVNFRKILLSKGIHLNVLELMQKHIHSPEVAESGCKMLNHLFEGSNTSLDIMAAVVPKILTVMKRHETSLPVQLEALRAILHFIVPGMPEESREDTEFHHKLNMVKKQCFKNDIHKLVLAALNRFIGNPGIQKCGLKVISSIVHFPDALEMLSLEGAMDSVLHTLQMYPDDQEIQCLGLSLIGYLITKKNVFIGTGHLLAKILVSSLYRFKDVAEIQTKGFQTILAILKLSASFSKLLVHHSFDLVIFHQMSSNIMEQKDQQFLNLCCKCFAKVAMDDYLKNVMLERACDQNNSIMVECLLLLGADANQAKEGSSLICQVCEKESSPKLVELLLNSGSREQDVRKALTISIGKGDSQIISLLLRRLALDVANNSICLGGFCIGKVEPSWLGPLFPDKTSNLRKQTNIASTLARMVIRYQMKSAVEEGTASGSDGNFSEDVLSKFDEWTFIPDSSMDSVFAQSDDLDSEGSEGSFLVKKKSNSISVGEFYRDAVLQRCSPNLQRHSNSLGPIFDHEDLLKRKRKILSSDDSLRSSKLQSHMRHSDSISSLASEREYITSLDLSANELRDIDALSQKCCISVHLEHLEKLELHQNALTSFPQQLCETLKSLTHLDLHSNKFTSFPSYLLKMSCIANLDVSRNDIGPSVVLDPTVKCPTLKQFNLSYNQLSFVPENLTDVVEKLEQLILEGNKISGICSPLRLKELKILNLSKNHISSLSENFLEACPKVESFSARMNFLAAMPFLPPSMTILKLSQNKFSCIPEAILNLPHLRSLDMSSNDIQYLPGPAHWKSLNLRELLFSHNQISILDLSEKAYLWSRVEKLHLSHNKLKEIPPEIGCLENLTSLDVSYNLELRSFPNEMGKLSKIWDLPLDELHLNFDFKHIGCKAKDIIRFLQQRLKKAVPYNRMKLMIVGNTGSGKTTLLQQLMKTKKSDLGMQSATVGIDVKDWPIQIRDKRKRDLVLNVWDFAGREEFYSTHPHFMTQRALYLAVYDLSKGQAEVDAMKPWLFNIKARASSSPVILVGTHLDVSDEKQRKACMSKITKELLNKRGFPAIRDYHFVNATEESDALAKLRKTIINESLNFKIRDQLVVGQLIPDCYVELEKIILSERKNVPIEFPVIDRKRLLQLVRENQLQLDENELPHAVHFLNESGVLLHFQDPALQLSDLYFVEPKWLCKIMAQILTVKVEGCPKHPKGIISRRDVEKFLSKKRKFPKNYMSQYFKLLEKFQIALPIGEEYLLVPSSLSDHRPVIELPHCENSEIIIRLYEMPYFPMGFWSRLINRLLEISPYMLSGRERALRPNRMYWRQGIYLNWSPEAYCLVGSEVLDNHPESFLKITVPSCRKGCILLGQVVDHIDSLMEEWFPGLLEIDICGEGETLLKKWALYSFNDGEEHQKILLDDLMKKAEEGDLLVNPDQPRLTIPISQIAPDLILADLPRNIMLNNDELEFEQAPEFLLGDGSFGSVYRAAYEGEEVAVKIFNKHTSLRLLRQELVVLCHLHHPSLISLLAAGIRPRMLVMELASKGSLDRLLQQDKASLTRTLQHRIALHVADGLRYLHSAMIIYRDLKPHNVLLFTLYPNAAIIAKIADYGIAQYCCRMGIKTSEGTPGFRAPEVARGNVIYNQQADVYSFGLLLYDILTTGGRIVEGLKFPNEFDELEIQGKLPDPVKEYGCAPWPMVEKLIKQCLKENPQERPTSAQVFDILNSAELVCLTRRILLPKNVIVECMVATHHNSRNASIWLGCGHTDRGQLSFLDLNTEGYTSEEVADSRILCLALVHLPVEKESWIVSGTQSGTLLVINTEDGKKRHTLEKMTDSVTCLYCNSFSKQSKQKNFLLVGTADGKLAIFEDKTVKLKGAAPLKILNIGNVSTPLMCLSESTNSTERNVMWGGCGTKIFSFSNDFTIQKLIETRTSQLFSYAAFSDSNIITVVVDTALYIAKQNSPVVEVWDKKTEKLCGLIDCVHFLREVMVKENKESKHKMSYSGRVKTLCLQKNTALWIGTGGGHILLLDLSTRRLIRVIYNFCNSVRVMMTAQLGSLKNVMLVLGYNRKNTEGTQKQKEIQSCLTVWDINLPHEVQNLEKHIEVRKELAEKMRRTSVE
Kind of test: LRRK2 degradation assay, wildtype LRRK2-HiBit expressed from plasmid in HEK293 cells. It is filed as cell-based. The following applies: HEK293 cells transfected with HiBit-tagged wildtype LRRK2, 24 hours compound incubation; for Dmax: read-out: **WT Dmax (%); for DC50: read-out: *WT DC50. The method, then: as §1, §2, §3, §4, §5, §6, §7, §8

T1 sequence (Q5S007 whole entry G2019S): as the sequence (Q5S007 whole entry) above, with G2019S counted along it

Take `CC(C)Oc1ccc2[nH]nc(-c3cc(N4CCN(CCN5CCN(CC6CCN(c7ccc8c(c7)C(=O)N(C7CCC(=O)NC7=O)C8=O)CC6)CC5)[C@@H](C)C4)ncn3)c2c1` (stereo partly drawn) [compound 26, 2-(2,6-dioxopiperidin-3-yl)-5-{4-[(4-{2-[(2S)-2-methyl-4-{6-[5-(propan-2-yloxy)-1H-indazol-3-yl]pyrimidin-4-yl}piperazin-1-yl]ethyl}piperazin-1-yl)methyl]piperidin-1-yl}-2,3-dihydro-1H-isoindole-1,3-dione]: in test [1], the DC50 is 10 to 50 nM and the Dmax was no less than 70%. Also, in test [2], the maximal degradation (Dmax) is no less than 70% and the DC50 was in the range of 10 to 50 nM.

For `C[C@@H]1CN(c2cc(-c3n[nH]c4ccc(OC5(C)CC5)cc34)ncn2)C[C@H](C)N1CCOCCN1CCN(c2ccc3c(c2)C(=O)N(C2CCC(=O)NC2=O)C3=O)CC1` (stereo partly drawn) [compound 21, 5-[4-(2-{2-[(2R,6S)-2,6-dimethyl-4-{6-[5-(1-methylcyclopropoxy)-1H-indazol-3-yl]pyrimidin-4-yl}piperazin-1-yl]ethoxy}ethyl)piperazin-1-yl]-2-(2,6-dioxopiperidin-3-yl)-2,3-dihydro-1H-isoindole-1,3-dione], in test [1], the DC50 was less than 10 nM and the Dmax lay within 50 to 70%. Besides, in test [2], the Dmax was no less than 70% and the DC50 is less than 10 nM.

With `CC(C)Oc1cc2c(-c3ccnc(N4CCN(CCOCCOCCOCCOc5ccc6c(c5)C(=O)N(C5CCC(=O)NC5=O)C6=O)[C@@H](C)C4)c3)n[nH]c2cc1F` (stereo partly drawn) [compound 14, 2-(2,6-dioxopiperidin-3-yl)-5-{2-[2-(2-{2-[(2S)-4-{4-[6-fluoro-5-(propan-2-yloxy)-1H-indazol-3-yl]pyridin-2-yl}-2-methylpiperazin-1-yl]ethoxy}ethoxy)ethoxy]ethoxy}-2,3-dihydro-1H-isoindole-1,3-dione], the half-maximal degradation concentration (DC50) in test [1] and in test [2] was no less than 100 nM throughout. The Dmax in test [1] is 50 to 70%; in test [2] it was no less than 70%.

`CC(C)Oc1ccc2[nH]nc(-c3cc(N4CCN(CC[C@H]5CCN(CC6CCN(c7ccc8c(c7)C(=O)N(C7CCC(=O)NC7=O)C8=O)CC6)C5)CC4)ncn3)c2c1` (stereo partly drawn) [compound 42, 2-(2,6-dioxopiperidin-3-yl)-5-(4-(((R)-3-(2-(4-(6-(5-isopropoxy-1H-indazol-3-yl)pyrimidin-4-yl)piperazin-1-yl)ethyl)pyrrolidin-1-yl)methyl)piperidin-1-yl)isoindoline-1,3-dione]: the DC50 in test [1] and in test [2] was 10 to 50 nM throughout. Also, the Dmax in test [1] and in test [2] was 50 to 70% each time.

In the case of `C[C@H]1CN(c2cc(-c3n[nH]c4ccc(OC5(C)CC5)cc34)ncn2)CCN1CCOCCOCCOCCOCCOc1ccc2c(c1)C(=O)N(C1CCC(=O)NC1=O)C2=O` (stereo partly drawn) [compound 5, 2-(2,6-dioxopiperidin-3-yl)-5-({14-[(2S)-2-methyl-4-{6-[5-(1-methylcyclopropoxy)-1H-indazol-3-yl]pyrimidin-4-yl}piperazin-1-yl]-3,6,9,12-tetraoxatetradecan-1-yl}oxy)-2,3-dihydro-1H-isoindole-1,3-dione], the DC50 in test [1] and in test [2] was 10 to 50 nM each time. The Dmax in test [1] and in test [2] was no less than 70% in each case.

As for `CC1(Oc2ccc3[nH]nc(-c4cc(N5CCO[C@@H](CCOCCOCCOCCOc6ccc7c(c6)C(=O)N(C6CCC(=O)NC6=O)C7=O)C5)ncn4)c3c2)CC1` (stereo partly drawn) [compound 18, 2-(2,6-dioxopiperidin-3-yl)-5-{2-[2-(2-{2-[(2S)-4-{6-[5-(1-methylcyclopropoxy)-1H-indazol-3-yl]pyrimidin-4-yl}morpholin-2-yl]ethoxy}ethoxy)ethoxy]ethoxy}-2,3-dihydro-1H-isoindole-1,3-dione], in test [1], the half-maximal degradation concentration (DC50) is less than 10 nM and the maximal degradation (Dmax) is no less than 70%. Moreover, in test [2], the Dmax was no less than 70% and the 50% degradation concentration (DC50) was less than 10 nM.

In test [1], `CC(C)Oc1ccc2[nH]nc(-c3cc(N4CCN(CCCN(C)CCCN5CCN(c6ccc7c(c6)C(=O)N(C6CCC(=O)NC6=O)C7=O)CC5)[C@@H](C)C4)ncn3)c2c1` (stereo partly drawn) [compound 38, 2-(2,6-dioxopiperidin-3-yl)-5-(4-{3-[methyl({3-[(2S)-2-methyl-4-{6-[5-(propan-2-yloxy)-1H-indazol-3-yl]pyrimidin-4-yl}piperazin-1-yl]propyl})amino]propyl}piperazin-1-yl)-2,3-dihydro-1H-isoindole-1,3-dione] came in with a DC50 of no less than 100 nM and a Dmax of no less than 70%. In addition, in test [2], the Dmax was no less than 70% and the DC50 lay within 50 to 100 nM.

Take `CC(C)Oc1ccc2[nH]nc(-c3cc(N4CCO[C@@H](CCN5CCN(CC6CCN(c7ccc8c(c7)C(=O)N(C7CCC(=O)NC7=O)C8=O)CC6)CC5)C4)ncn3)c2c1` (stereo partly drawn) [compound 49, 2-(2,6-dioxopiperidin-3-yl)-5-(4-((4-(2-((S)-4-(6-(5-isopropoxy-1H-indazol-3-yl)pyrimidin-4-yl)morpholin-2-yl)ethyl)piperazin-1-yl)methyl)piperidin-1-yl)isoindoline-1,3-dione]: in test [1], the DC50 was less than 10 nM and the Dmax fell in the range of 50 to 70%. In test [2], the Dmax was no less than 70% and the DC50 was less than 10 nM.

In test [1], `CC(C)Oc1ccc2[nH]nc(-c3cc(N4CCN(CCN5CC(CN6CCN(c7ccc8c(c7)C(=O)N(C7CCC(=O)NC7=O)C8=O)CC6)C5)CC4)ncn3)c2c1` (stereo not shown) [compound 45, 2-(2,6-dioxopiperidin-3-yl)-5-(4-((1-(2-(4-(6-(5-isopropoxy-1H-indazol-3-yl)pyrimidin-4-yl)piperazin-1-yl)ethyl)azetidin-3-yl)methyl)piperazin-1-yl)isoindoline-1,3-dione] showed a half-maximal degradation concentration (DC50) of no less than 100 nM and a Dmax of less than 50%. In test [2], the Dmax was less than 50% and the DC50 fell in the range of 10 to 50 nM.

In the case of `CC(C)Oc1cc2c(-c3cc(N4CCN(CCOCCOCCOCCOc5ccc6c(c5)C(=O)N(C5CCC(=O)NC5=O)C6=O)[C@@H](C)C4)ncn3)n[nH]c2cc1F` (stereo partly drawn) [compound 15, 2-(2,6-dioxopiperidin-3-yl)-5-{2-[2-(2-{2-[(2S)-4-{6-[6-fluoro-5-(propan-2-yloxy)-1H-indazol-3-yl]pyrimidin-4-yl}-2-methylpiperazin-1-yl]ethoxy}ethoxy)ethoxy]ethoxy}-2,3-dihydro-1H-isoindole-1,3-dione], in test [1], the DC50 is no less than 100 nM and the Dmax is less than 50%. Moreover, in test [2], the maximal degradation (Dmax) was less than 50% and the DC50 was no less than 100 nM.

In the case of `CC(C)Oc1ccc2[nH]nc(-c3cc(N4CCO[C@H](CCN5CCN(CC6CCN(c7ccc8c(c7)C(=O)N(C7CCC(=O)NC7=O)C8=O)CC6)CC5)C4)ncn3)c2c1` (stereo partly drawn) [compound 50, 2-(2,6-dioxopiperidin-3-yl)-5-(4-((4-(2-((R)-4-(6-(5-isopropoxy-1H-indazol-3-yl)pyrimidin-4-yl)morpholin-2-yl)ethyl)piperazin-1-yl)methyl)piperidin-1-yl)isoindoline-1,3-dione], in test [1], the DC50 was less than 10 nM and the Dmax was no less than 70%. In test [2], the maximal degradation (Dmax) is no less than 70% and the half-maximal degradation concentration (DC50) is less than 10 nM.

As for `CC(C)Oc1ccc2[nH]nc(-c3cc(N4CCN(CCN5CC(CCN6CCN(c7ccc8c(c7)C(=O)N(C7CCC(=O)NC7=O)C8=O)CC6)C5)CC4)ncn3)c2c1` (stereo not shown) [compound 46, 2-(2,6-dioxopiperidin-3-yl)-5-(4-(2-(1-(2-(4-(6-(5-isopropoxy-1H-indazol-3-yl)pyrimidin-4-yl)piperazin-1-yl)ethyl)azetidin-3-yl)ethyl)piperazin-1-yl)isoindoline-1,3-dione], in test [2], the greatest degradation seen (Dmax) fell in the range of 50 to 70% and the DC50 was less than 10 nM.

The values are drawn from patent US20250114356A1, “INDAZOLE BASED COMPOUNDS AND ASSOCIATED METHODS OF USE” (Arvinas Operations, Inc., priority 2020, published 2025).
